Measurements: patent USRE32393E, “Composition for enhancing the administration of pharmacologically active agents” (KabiVitrum AB, priority 1967, dated 1987)
Where a name gives a salt, the structure may show the parent alone.

Experiments:
[1] = test system: hind leg of cats anaesthetized with chloralose; conditions: intraarterial, about 1-2 mg/kg
[2] = test system: chloralose-anaesthetized cat; experiment: effect on blood pressure in chloralose-anaesthetized cat; assay type: in vivo; conditions: intravenous
Experimental: The effects of the emulsion on the blood pressure when given intravenously in a dose of 5-10 mg/kg was registered on a chloralose-anaesthetized cat.

mouse = experiment: sleeping time in mouse (loss of righting reflex); assay type: in vivo; conditions: single dose
Text: The sleeping time after a single dose injection of the emulsion was shorter than the sleeping time after injection of an aqueous solution of sodium hexobarbital:
In accordance with common practice, the sleeping time has been set as the duration of the loss of the righting reflex.

[3] = pH value of phenyramidol preparations; assay type: physicochemical; conditions: aqueous solution
[4] = test system: male albino mice of the NMRI strain; experiment: intravenous toxicity (LD50, survival time) of mecamylamine preparations in mice; assay type: in vivo; conditions: ± S.E.
Text: (§1) Mecamylamine (3-methylaminoisocamphane hydrochloride) is a ganglion-blocking secondary amine, and as a base, it is an oily liquid which is soluble in lipids. Its toxicity (LD50) after intravenous administration has been estimated in male albino mice of the NMRI strain in accordance with the method of the Nordic Pharmacopoeia. The following preparations were used:
(§2) Mecamylamine hydrochloride, 1% dissolved in saline
(§3) Mecamylamine base, dissolved in soybean oil and emulsified in the conventional way. Final concentration 1%.
(§4) Mecamylamine base, directly emulsified in 5.5% glucose solution with the aid of Pluronic F-68 (a registered trade mark for a nonionic emulsifier consisting of a block polymer of ethylene oxide and propylene oxide, from Wyandotte Chemical Corporation, described on page 392 of the Extra Pharmacopoeia, Martindale, 26th Edition) and an ultrasonic apparatus (20.000 Hz). Final concentration 1%.
(§5) The injections were given in the dorsal tail vein at a speed of 0.1 ml per 5 seconds.

[5] = as above; assay type: in vivo, male albino mice of the NMRI strain; conditions: mouse, in vivo, 1% preparations, fiducial limits at P = 0.05
Text: as §1, §2, §3, §4, §5

With `CC1CC(OC(=O)C(O)c2ccccc2)CC(C)(C)C1` (stereo not drawn) [Cyclandelate, 3,5,5-trimethylcyclohexyl mandelate] the onset of vasodilatation [1] was “within a few seconds” and the vasodilatation ([1]; especially in noradrenaline induced vasoconstriction) was “marked vasodilatation”.
For `CN1C(=O)NC(=O)C(C)(C2=CCCCC2)C1=O` (stereo not drawn) [sodium hexobarbital], the “duration of blood pressure depression, emulsion and sodium hexobarbital solution” value [2] was “about the same duration”, the “depression of blood pressure” value ([2]; 5-10 mg/kg) was “about 6 mm Hg” and the Sleeping time (mouse; 72 mg/kg) was 172 s. It also gave a Sleeping time (mouse; 86 mg/kg) of 905 s.
For `OC(CNc1ccccn1)c1ccccc1` (stereo not drawn) [phenyramidol hydrochloride], the “pH value compared with the emulsion” value [3] was “lower pH value”.
With `CNC1(C)C2CCC(C2)C1(C)C` (stereo not drawn) [Mecamylamine HCl, 3-methylaminoisocamphane hydrochloride] the “Survival time (time from the injections to death)” value [4] was 55 ± 5.1 s and the LD50 [5] was 16.3 mg/kg.
